Tests used:
[1] = target: Human immunodeficiency virus type 1 integrase (Human immunodeficiency virus 1) (UniProt Q7ZJM1); assay: Inhibition of His-tagged HIV-1 integrase-mediated 3' processing and strand transfer reactions using 5'-ACAGGCCTAGCACGCGTCG-Biotin-3' annealed with 5'-CGACGCGTGGTAGGCCTGT-Biotin3'/5'-Cy5-ATGTGGAAAATCTCTAGCAGT-3' annealed with 5'-Cy5-TGAGCTCGAGATTTTCCACAT-3' as donar/acceptor DNA substrate preincubated for 1 hr followed by DNA and LEDGF/p75 addition measured after 90 mins by HTRF assay
[2] = target: Human immunodeficiency virus type 1 integrase (Human immunodeficiency virus 1, UniProt Q7ZJM1); assay: Binding affinity to recombinant HIV-1 integrase catalytic core domain expressed in Escherichia coli assessed as inhibition of interaction with […] by HTRF assay
Human immunodeficiency virus type 1 integrase, sequence (Q7ZJM1 whole entry, the tested form may be a part): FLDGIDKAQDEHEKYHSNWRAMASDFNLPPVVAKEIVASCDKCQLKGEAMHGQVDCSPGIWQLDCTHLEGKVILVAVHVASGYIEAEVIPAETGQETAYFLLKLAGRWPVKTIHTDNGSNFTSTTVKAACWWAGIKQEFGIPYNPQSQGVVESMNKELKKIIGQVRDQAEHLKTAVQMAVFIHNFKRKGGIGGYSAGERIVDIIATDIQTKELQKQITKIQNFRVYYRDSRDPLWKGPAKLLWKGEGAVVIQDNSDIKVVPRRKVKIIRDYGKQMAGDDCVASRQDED

Human immunodeficiency virus type 1 integrase (Human immunodeficiency virus 1), sequence (Q7ZJM1 as listed by the source): as the sequence (Q7ZJM1 whole entry, the tested form may be a part) above

Row | inhibition [1] | IC50 [2] [nM] | SMILES
1 | Dose-dependent effect | – | CCC[C@H](C(=O)O)c1c(C)nc2ccc(Cl)cc2c1-c1ccccc1
2 | – | 60 | Cc1nc2ccc(Br)cc2c(-c2ccc(Cl)cc2)c1[C@H](OC(C)(C)C)C(=O)O
3 | – | 18 | Cc1nc2ccccc2c(-c2cc(F)c3c(c2C)CCCO3)c1[C@H](OC(C)(C)C)C(=O)O
